Among the data in patent publication EP4722212A1, “NOVEL COMPOUND FOR INHIBITING PROTEIN KINASES AND PHARMACEUTICAL COMPOSITION COMPRISING SAME” (Magicbullettherapeutics Co., Ltd., priority 2023, dated 2024) are IC50 and GI50 values, retold here.

Each structure is given as a SMILES string.

The term IC50 denotes the concentration that inhibits the measured activity by half. High values mean lower potency, low ones higher potency. As usually defined, the GI50 is the concentration that inhibits growth by half.

The target in one assay is T1, ACK1 (Homo sapiens, UniProt Q07912).
T1 construct: purchased Reaction Biology (RBC)
T1 sequence (Q07912 whole entry): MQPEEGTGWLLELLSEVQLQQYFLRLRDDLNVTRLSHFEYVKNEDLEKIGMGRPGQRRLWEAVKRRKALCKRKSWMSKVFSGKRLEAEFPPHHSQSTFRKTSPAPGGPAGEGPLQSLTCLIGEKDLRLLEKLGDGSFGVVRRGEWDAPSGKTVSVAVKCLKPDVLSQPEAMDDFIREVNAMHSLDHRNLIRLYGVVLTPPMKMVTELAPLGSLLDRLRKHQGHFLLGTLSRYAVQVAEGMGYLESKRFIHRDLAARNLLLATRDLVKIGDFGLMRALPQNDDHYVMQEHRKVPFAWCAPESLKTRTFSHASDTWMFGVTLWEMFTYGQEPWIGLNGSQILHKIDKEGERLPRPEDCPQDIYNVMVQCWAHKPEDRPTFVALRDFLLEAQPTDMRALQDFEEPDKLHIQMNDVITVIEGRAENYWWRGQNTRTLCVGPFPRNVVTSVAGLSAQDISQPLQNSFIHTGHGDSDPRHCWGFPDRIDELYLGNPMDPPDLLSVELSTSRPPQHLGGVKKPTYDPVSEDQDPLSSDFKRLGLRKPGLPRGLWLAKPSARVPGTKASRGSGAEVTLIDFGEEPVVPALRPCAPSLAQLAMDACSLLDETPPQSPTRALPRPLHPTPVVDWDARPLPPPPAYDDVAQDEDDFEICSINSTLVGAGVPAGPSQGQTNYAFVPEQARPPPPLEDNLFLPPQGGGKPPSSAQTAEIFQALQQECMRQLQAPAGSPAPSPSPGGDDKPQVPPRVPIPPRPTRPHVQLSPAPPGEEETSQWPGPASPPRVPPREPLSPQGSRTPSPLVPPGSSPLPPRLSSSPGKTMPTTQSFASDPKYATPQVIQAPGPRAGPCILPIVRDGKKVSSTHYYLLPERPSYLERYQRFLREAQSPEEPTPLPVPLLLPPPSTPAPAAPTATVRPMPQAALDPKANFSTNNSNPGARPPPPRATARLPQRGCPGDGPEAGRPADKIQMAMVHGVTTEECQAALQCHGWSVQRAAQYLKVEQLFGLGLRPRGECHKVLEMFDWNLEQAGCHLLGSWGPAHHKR
Kind of assay: Enzyme activity inhibition (Reaction Biology).
Conditions: not given
It counts as biochemical. The method, then: [* <10 nM: A, <100 nM: B, >100 nM: C]. [Table 7]
For `Cc1ccc(NC(=O)c2cccc(C(F)(F)F)c2)cc1N1Cc2cnc(NO)nc2C2(CC2)C1=O` [Compound 70, N-(3-(2'-(hydroxyamino)-7'-oxo-5'H-spiro[cyclopropane-1,8'-pyrido[4,3-d]pyrimidine]-6'(7'H)-yl)-4-methylphenyl)-3-(trifluoromethyl)benzamide], the IC50 lay in the range of 0.01 to 0.1 µM.

Another assay relates to C4-2B. Kind of assay: Cell line inhibition analysis (CCK-8, 72 h). It counts as cell-based. The settings on record: read-out: Cell growth inhibition GI50 C4-2B. Here is the method:
C4-2B and 22Rv1 cells were purchased from ATCC and cultured according to the manufacturer's instructions. The cells were seeded in 96-well plates at 7×10^3cells/100 µl/well and allowed to attach for one day. After removing the culture medium, 90 µl/well of fresh culture medium was added, followed by addition of 10 µl/well of culture medium containing compounds at nine concentrations (0.076-500 µM) serially diluted 3-fold and DMSO control to achieve final concentrations of 0-50 µM, and then cultured for 72 hours in a 37 °C CO2 incubator. Cell proliferation after 72 hours was assessed by adding 10 µl/well of CCK-8 solution, orbital shaking for 30 seconds, then incubating at 37 °C CO2 incubator for 2 hours and measuring absorbance at 450 nm using a microplate reader. The measured absorbance values were corrected by subtracting the absorbance of wells containing only culture medium and CCK-8 solution, and GI50 values were calculated using GraphPad Prism 8 software.
Meanwhile, in a separate 96-well plate, cells were seeded at 7 × 10^3 cells/100 µl/well, allowed to attach for one day, CCK-8 solution was added, and absorbance was measured to establish the 'Growth (%) = 0' value.
As for `Cc1ccc(NC(=O)c2ccc(F)c(F)c2)cc1N1Cc2cnc(N)nc2C2(CC2)C1=O` [Compound 9, N-(3-(2'-amino-7'-oxo-5'H-spiro[cyclopropane-1,8'-pyrido[4,3-d]pyrimidine]-6'(7'H)-yl)-4-methylphenyl)-3,4-difluorobenzamide], the GI50 was over 10 µM. Still for that read-out and setting: the result for `Cc1ccc(NC(=O)c2ccc(F)c(F)c2)cc1N1Cc2cnc(NC3CC3)nc2C2(CC2)C1=O` [Compound 10, N-(3-(2'-(cyclopropylamino)-7'-oxo-5'H-spiro[cyclopropane-1,8'-pyrido[4,3-d]pyrimidine]-6'(7'H)-yl)-4-methylphenyl)-3,4-difluorobenzamide] reads over 10 µM; that for `Cc1ccc(NC(=O)c2cc(F)cc(F)c2)cc1N1Cc2cnc(NC3CC3)nc2C2(CC2)C1=O` [Compound 11, N-(3-(2'-(cyclopropylamino)-7'-oxo-5'H-spiro[cyclopropane-1,8'-pyrido[4,3-d]pyrimidine]-6'(7'H)-yl)-4-methylphenyl)-3,5-difluorobenzamide], over 10 µM; that for `Cc1ccc(NC(=O)c2ccc(C)c(C(F)(F)F)c2)cc1N1Cc2cnc(NC3CC3)nc2C2(CC2)C1=O` [Compound 12, N-(3-(2'-(cyclopropylamino)-7'-oxo-5'H-spiro[cyclopropane-1,8'-pyrido[4,3-d]pyrimidine]-6'(7'H)-yl)-4-methylphenyl)-4-methyl-3-(trifluoromethyl)benzamide], 1 to 5 µM.

Regarding `Cc1ccc(NC(=O)c2cc(Br)cc(C(F)(F)F)c2)cc1N1Cc2cnc(NC3CC3)nc2C2(CC2)C1=O` [Compound 13, 3-bromo-N-(3-(2'-(cyclopropylamino)-7'-oxo-5'H-spiro[cyclopropane-1,8'-pyrido[4,3-d]pyrimidine]-6'(7'H)-yl)-4-methylphenyl)-5-(trifluoromethyl)benzamide], the GI50 is over 10 µM. With `Cc1ccc(NC(=O)c2ccc(F)cc2F)cc1N1Cc2cnc(N)nc2C2(CC2)C1=O` [Compound 14, N-(3-(2'-amino-7'-oxo-5'H-spiro[cyclopropane-1,8'-pyrido[4,3-d]pyrimidine]-6'(7'H)-yl)-4-methylphenyl)-2,4-difluorobenzamide], the GI50 was over 10 µM.

Consider `Cc1ccc(NC(=O)c2cc(F)cc(F)c2)cc1N1Cc2cnc(N)nc2C2(CC2)C1=O` [Compound 15, N-(3-(2'-amino-7'-oxo-5'H-spiro[cyclopropane-1,8'-pyrido[4,3-d]pyrimidine]-6'(7'H)-yl)-4-methylphenyl)-3,5-difluorobenzamide], for which the GI50 was in the range of 5 to 10 µM. With `COc1cccc(C(=O)Nc2ccc(C)c(N3Cc4cnc(N)nc4C4(CC4)C3=O)c2)c1` [Compound 16, N-(3-(2'-amino-7'-oxo-5'H-spiro[cyclopropane-1,8'-pyrido[4,3-d]pyrimidine]-6'(7'H)-yl)-4-methylphenyl)-3-methoxybenzamide], the GI50 is over 10 µM. Take `Cc1ccc(NC(=O)c2cc(C(F)(F)F)cc(Cl)c2F)cc1N1Cc2cnc(N)nc2C2(CC2)C1=O` [Compound 17, N-(3-(2'-amino-7'-oxo-5'H-spiro[cyclopropane-1,8'-pyrido[4,3-d]pyrimidine]-6'(7'H)-yl)-4-methylphenyl)-3-chloro-2-fluoro-5-(trifluoromethyl)benzamide]: the GI50 was over 10 µM. `Cc1ccc(NC(=O)c2cc(C(F)(F)F)ccc2F)cc1N1Cc2cnc(N)nc2C2(CC2)C1=O` [Compound 18, N-(3-(2'-amino-7'-oxo-5'H-spiro[cyclopropane-1,8'-pyrido[4,3-d]pyrimidine]-6'(7'H)-yl)-4-methylphenyl)-2-fluoro-5-(trifluoromethyl)benzamide]: the GI50 is over 10 µM. Regarding `Cc1ccc(NC(=O)c2cccc(C(F)(F)F)n2)cc1N1Cc2cnc(N)nc2C2(CC2)C1=O` [Compound 21, N-(3-(2'-amino-7'-oxo-5'H-spiro[cyclopropane-1,8'-pyrido[4,3-d]pyrimidine]-6'(7'H)-yl)-4-methylphenyl)-6-(trifluoromethyl)picolinamide], the GI50 is over 10 µM. Turning to `Cc1ccc(NC(=O)c2ccnc(C(F)(F)F)c2)cc1N1Cc2cnc(N)nc2C2(CC2)C1=O` [Compound 22, N-(3-(2'-amino-7'-oxo-5'H-spiro[cyclopropane-1,8'-pyrido[4,3-d]pyrimidine]-6'(7'H)-yl)-4-methylphenyl)-2-(trifluoromethyl)isonicotinamide], the GI50 was over 10 µM. With `Cc1ccc(NC(=O)c2cc(O)cc(C(F)(F)F)c2)cc1N1Cc2cnc(N)nc2C2(CC2)C1=O` [Compound 23, N-(3-(2'-amino-7'-oxo-5'H-spiro[cyclopropane-1,8'-pyrido[4,3-d]pyrimidine]-6'(7'H)-yl)-4-methylphenyl)-3-hydroxy-5-(trifluoromethyl)benzamide], the GI50 was 5 to 10 µM. For the molecule `Cc1ccc(NC(=O)c2cc(F)cc(C(F)(F)F)c2)cc1N1Cc2cnc(NC3CC3)nc2C2(CC2)C1=O` [Compound 27, N-(3-(2'-(cyclopropylamino)-7'-oxo-5'H-spiro[cyclopropane-1,8'-pyrido[4,3-d]pyrimidine]-6'(7'H)-yl)-4-methylphenyl)-3-fluoro-5-(trifluoromethyl)benzamide], the GI50 fell in the range of 5 to 10 µM. Regarding `COCCN(C)c1cc(C(=O)Nc2ccc(C)c(N3Cc4cnc(NC5CC5)nc4C4(CC4)C3=O)c2)cc(C(F)(F)F)c1` [Compound 30, N-(3-(2'-(cyclopropylamino)-7'-oxo-5'H-spiro[cyclopropane-1,8'-pyrido[4,3-d]pyrimidine]-6'(7'H)-yl)-4-methylphenyl)-3-((2-methoxyethyl)(methyl)amino)-5-(trifluoromethyl)benzamide], the GI50 is 1 to 5 µM. As to `Cc1ccc(NC(=O)c2cc(N3CCN(C)CC3)cc(C(F)(F)F)c2)cc1N1Cc2cnc(NC3CC3)nc2C2(CC2)C1=O` [Compound 32, N-(3-(2'-(cyclopropylamino)-7'-oxo-5'H-spiro[cyclopropane-1,8'-pyrido[4,3-d]pyrimidine]-6'(7'H)-yl)-4-methylphenyl)-3-(4-methylpiperazin-1-yl)-5-(trifluoromethyl)benzamide], the GI50 was in the range of 1 to 5 µM.

Turning to `Cc1ccc(NC(=O)c2cc(N3CCN(C)CC3)cc(C(F)(F)F)c2)cc1N1Cc2cnc(N)nc2C2(CC2)C1=O` [Compound 33, N-(3-(2'-amino-7'-oxo-5'H-spiro[cyclopropane-1,8'-pyrido[4,3-d]pyrimidine]-6'(7'H)-yl)-4-methylphenyl)-3-(4-methylpiperazin-1-yl)-5-(trifluoromethyl)benzamide], the concentration for 50% growth inhibition (GI50) was 5 to 10 µM. Same read-out and setting: the result for `Cc1ccc(NC(=O)c2cc(N3CCNCC3)cc(C(F)(F)F)c2)cc1N1Cc2cnc(N)nc2C2(CC2)C1=O` [Compound 34, N-(3-(2'-amino-7'-oxo-5'H-spiro[cyclopropane-1,8'-pyrido[4,3-d]pyrimidine]-6'(7'H)-yl)-4-methylphenyl)-3-(piperazin-1-yl)-5-(trifluoromethyl)benzamide] reads 5 to 10 µM; that for `Cc1ccc(NC(=O)c2cc(N3CCNCC3)cc(C(F)(F)F)c2)cc1N1Cc2cnc(NC3CC3)nc2C2(CC2)C1=O` [Compound 35, N-(3-(2'-(cyclopropylamino)-7'-oxo-5'H-spiro[cyclopropane-1,8'-pyrido[4,3-d]pyrimidine]-6'(7'H)-yl)-4-methylphenyl)-3-(piperazin-1-yl)-5-(trifluoromethyl)benzamide], 5 to 10 µM; that for `Cc1ccc(NC(=O)c2cc(N(C)CCN(C)C)cc(C(F)(F)F)c2)cc1N1Cc2cnc(NC3CC3)nc2C2(CC2)C1=O` [Compound 36, N-(3-(2'-(cyclopropylamino)-7'-oxo-5'H-spiro[cyclopropane-1,8'-pyrido[4,3-d]pyrimidine]-6'(7'H)-yl)-4-methylphenyl)-3-((2-(dimethylamino)ethyl)(methyl)amino)-5-(trifluoromethyl)benzamide], 5 to 10 µM. In the case of `Cc1ccc(NC(=O)c2cc(N(C)CCN(C)C)cc(C(F)(F)F)c2)cc1N1Cc2cnc(N)nc2C2(CC2)C1=O` [Compound 37, N-(3-(2'-amino-7'-oxo-5'H-spiro[cyclopropane-1,8'-pyrido[4,3-d]pyrimidine]-6'(7'H)-yl)-4-methylphenyl)-3-((2-(dimethylamino)ethyl)(methyl)amino)-5-(trifluoromethyl)benzamide], the GI50 was over 10 µM.
